Patent US10385019B2, “Inhibitors of EGFR and methods of use thereof” (Dana-Farber Cancer Institute, Inc., priority 2015, dated 2019)

Molecular target: EGFR T790M/L858R Ba/F3 cell line (Homo sapiens, UniProt P00533, T790M/L858R, cells depend on it)
Assay: Ba/F3 cell proliferation model
Assay type: cell-based, murine
Conditions: combined with cetuximab (% cetuximab, 1.0 μM drug concentration with 1.0 μg/mL cetuximab)
Text: The selectivity between wild-type EGFR and EGFR containing one or more mutations as described herein can also be measured using cellular proliferation assays where cell proliferation is dependent on kinase activity. For example, murine Ba/F3 cells transfected with a suitable version of wild-type EGFR (such as VIII; containing a WT EGFR kinase domain), or Ba/F3 cells transfected with L858R/T790M, Del/T790M/L718Q, L858R/T790M/L718Q, L858R/T790M/C797S, Del/T790M/C797S, L858R/T790M/I941R, or Exon 19 deletion/T790M can be used.
Cell lines are plated in media. The compounds of the present disclosure are then serially diluted and transferred to the cells. Cell viability is measured via a luminescent readout. Data is analyzed by non-linear regression curve-fitting. […]
The EGFR mutant L858R, Del E746_A750, L858R/T790M, DelE746_A750/T790M, L858R/T790M/C797S and Del/T790M/C797S Ba/F3 cells have been previously described (Zhou, W., Ercan, D., Chen, L., Yun, C. H., Li, D., Capelletti, M., Cortot, A. B., Chirieac, L., Iacob, R. E., Padera, R., et al. “Novel mutant-selective EGFR kinase inhibitors against EGFR T790M,” Nature 462, (2009), 1070-1074). All cell lines were maintained in RPMI 1640 (Cellgro; Mediatech Inc., Herndon, Calif.) supplemented with 10% FBS 100 units/mL penicillin, 100 units/mL streptomycin, and 2 mM glutamine. L858R cells were maintained in ACL-4 media (Invitrogen, Carlsbad, Calif.) supplemented with 5% FBS, 100 units/mL penicillin, 100 units/mL streptomycin, and 2 mM glutamine. The EGFR I941R mutation was introduced via site directed mutagenesis using the Quick Change Site-Directed Mutagenesis kit (Stratagene; La Jolla, Calif.) according to the manufacturer's instructions. All constructs were confirmed by DNA sequencing. The constructs were shuttled into the retroviral vector JP 1540 using the BD Creator™ System (BD Biosciences). Ba/F3 cells were infected with retrovirus and according to standard protocols, as described previously (Zhou et al, Nature 2009). Stable clones were obtained by selection in puromycin (2 μg/ml).
Growth and inhibition of growth was assessed by MTS assay and was performed according to previously established methods (Zhou et al., Nature 2009). The MTS assay is a colorimetric method for determining the number of viable cells that is based on the bioreduction of MTS by cells to a formazan product that is soluble in cell culture medium and can be detected spectrophotometrically. Ba/F3 cells of different EGFR genotypes were exposed to treatment for 72 hours and the number of cells used per experiment determined empirically and has been previously established (Zhou et al., Nature 2009). All experimental points were set up in six wells and all experiments were repeated at least three times. […] The curves were fitted using a non-linear regression model with a sigmoidal dose response.
Inhibition data of an EGFR T790M/L858R Ba/F3 cell line.

Chain of EGFR T790M/L858R Ba/F3 cell line (P00533 whole entry T790M/L858R): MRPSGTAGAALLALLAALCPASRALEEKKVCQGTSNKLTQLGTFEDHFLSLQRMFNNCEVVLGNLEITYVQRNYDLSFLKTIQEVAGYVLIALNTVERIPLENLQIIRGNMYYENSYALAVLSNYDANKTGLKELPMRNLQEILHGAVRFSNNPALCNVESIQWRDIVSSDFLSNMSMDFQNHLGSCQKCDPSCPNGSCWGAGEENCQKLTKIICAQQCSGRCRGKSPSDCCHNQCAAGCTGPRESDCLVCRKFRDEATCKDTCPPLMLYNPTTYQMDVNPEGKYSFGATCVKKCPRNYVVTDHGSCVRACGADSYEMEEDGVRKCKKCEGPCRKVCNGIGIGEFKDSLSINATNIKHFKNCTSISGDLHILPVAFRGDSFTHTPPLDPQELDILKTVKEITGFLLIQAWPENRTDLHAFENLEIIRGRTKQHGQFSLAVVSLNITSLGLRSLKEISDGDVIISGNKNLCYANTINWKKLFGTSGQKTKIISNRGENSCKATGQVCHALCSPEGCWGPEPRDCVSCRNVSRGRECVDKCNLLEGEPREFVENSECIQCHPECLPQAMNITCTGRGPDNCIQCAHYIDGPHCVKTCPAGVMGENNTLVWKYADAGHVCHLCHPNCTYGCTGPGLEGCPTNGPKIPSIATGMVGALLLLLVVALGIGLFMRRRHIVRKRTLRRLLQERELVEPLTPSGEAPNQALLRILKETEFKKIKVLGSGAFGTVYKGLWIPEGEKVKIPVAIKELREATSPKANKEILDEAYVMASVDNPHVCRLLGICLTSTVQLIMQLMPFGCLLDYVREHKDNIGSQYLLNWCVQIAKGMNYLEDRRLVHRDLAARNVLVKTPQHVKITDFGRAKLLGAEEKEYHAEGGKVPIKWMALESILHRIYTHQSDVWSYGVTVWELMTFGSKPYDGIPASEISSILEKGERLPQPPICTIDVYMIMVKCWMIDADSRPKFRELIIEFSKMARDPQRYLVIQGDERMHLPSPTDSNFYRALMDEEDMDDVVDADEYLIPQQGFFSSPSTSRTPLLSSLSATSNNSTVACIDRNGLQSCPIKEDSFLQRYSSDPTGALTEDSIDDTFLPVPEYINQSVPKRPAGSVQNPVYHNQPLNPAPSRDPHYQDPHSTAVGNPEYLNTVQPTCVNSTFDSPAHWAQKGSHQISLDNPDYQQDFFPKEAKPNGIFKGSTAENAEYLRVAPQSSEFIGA

Row | SMILES | Activity (% inhibition)
1 | O=C(Nc1nccs1)[C@@H](c1ccccc1)N1Cc2ccc(-c3ccsc3)cc2C1=O [Compound I-47, (R)-2-(1-oxo-6-(thiophen-3-yl)isoindolin-2-yl)-2-phenyl-N-(thiazol-2-yl)acetamide] | B (a % inhibition of between about 50% to about 75%)
2 | O=C(Nc1nccs1)[C@@H](c1ccccc1)N1Cc2cc(-c3ccccc3)ccc2C1=O [Compound I-105, (R)-2-(1-oxo-5-phenylisoindolin-2-yl)-2-phenyl-N-(thiazol-2-yl)acetamide] | B (a % inhibition of between about 50% to about 75%)
3 | CN(C)CCNC(=O)c1csc(NC(=O)[C@@H](c2ccccc2)N2Cc3ccccc3C2=O)n1 [Compound I-16, (R)-N-(2-(dimethylamino)ethyl)-2-(2-(1-oxoisoindolin-2-yl)-2-phenylacetamido)thiazole-4-carboxamide] | A (a % inhibition of about 75%)
4 | O=C(Nc1ncco1)[C@@H](c1ccccc1)N1Cc2ccccc2C1=O [Compound I-19, (R)-N-(oxazol-2-yl)-2-(1-oxoisoindolin-2-yl)-2-phenylacetamide] | A (a % inhibition of about 75%)
5 | CCOC(=O)c1csc(NC(=O)[C@H](Cc2ccccc2)N2Cc3ccccc3C2=O)n1 [Compound I-48, ethyl (S)-2-(2-(1-oxoisoindolin-2-yl)-3-phenylpropanamido) thiazole-4-carboxylate] | A (a % inhibition of about 75%)
6 | N#Cc1ccc(-c2ccc3c(c2)C(=O)N([C@H](C(=O)Nc2nccs2)c2ccccc2)C3)cc1F [Compound I-114, (S)-2-(6-(4-cyano-3-fluorophenyl)-1-oxoisoindolin-2-yl)-2-phenyl-N-(thiazol-2-yl)acetamide] | B (a % inhibition of between about 50% to about 75%)
7 | CN(C)CCNC(=O)c1cccc(-c2ccc3c(c2)C(=O)N([C@@H](C(=O)Nc2nccs2)c2ccccc2)C3)c1 [Compound I-88, (R)-N-(2-(dimethylamino)ethyl)-3-(3-oxo-2-(2-oxo-1-phenyl-2-(thiazol-2-ylamino)ethyl)isoindolin-5-yl)benzamide] | C (a % inhibition of between about 25% to about 50%)
8 | O=C(Nc1nc2cccnc2s1)[C@@H](c1ccccc1)N1Cc2ccccc2C1=O [Compound I-32, (R)-2-(1-oxoisoindolin-2-yl)-2-phenyl-N-(thiazolo [5,4-b]pyridin-2-yl)acetamide] | A (a % inhibition of about 75%)
9 | CN(C)CCCCNC(=O)c1cccc(-c2ccc3c(c2)C(=O)N([C@@H](C(=O)Nc2nccs2)c2ccccc2)C3)c1 [Compound I-89, (R)-N-(4-(dimethylamino)butyl)-(3-oxo-2-(2-oxo-1-phenyl-2-(thiazol-2-ylamino)ethyl)isoindolin-5-yl)benzamide] | B (a % inhibition of between about 50% to about 75%)
10 | O=C(Nc1ncco1)[C@H](c1ccccc1)N1Cc2ccccc2C1=O [Compound I-20, (S)-N-(oxazol-2-yl)-2-(1-oxoisoindolin-2-yl)-2-phenylacetamide] | A (a % inhibition of about 75%)
11 | O=C(Nc1nccs1)[C@@H](c1ccccc1)N1Cc2cc(Nc3ccc(OCc4ccccc4)cc3)ccc2C1=O [Compound I-96, (R)-2-(5-((4-(benzyloxy)phenyl)amino)-1-oxoisoindolin-2-yl)-2-phenyl-N-(thiazol-2-yl)acetamide] | A (a % inhibition of about 75%)
12 | CN(C)CCCCNC(=O)c1csc(NC(=O)[C@@H](c2ccccc2)N2Cc3ccccc3C2=O)n1 [Compound I-15, (R)-N-(4-(dimethylamino)butyl)-2-(2-(1-oxoisoindolin-2-yl)-2-phenylacetamido)thiazole-4-carboxamide] | A (a % inhibition of about 75%)
13 | O=C(NCCCN1CCOCC1)c1cccc(-c2ccc3c(c2)C(=O)N([C@@H](C(=O)Nc2nccs2)c2ccccc2)C3)c1 [Compound I-91, (R)-N-(3-morpholinopropyl)-3-(3-oxo-2-(2-oxo-1-phenyl-2-(thiazol-2-ylamino)ethyl)isoindolin-5-yl)benzamide] | D (a % inhibition of between about 0% to about 25%)
14 | O=C(Nc1nccs1)[C@@H](c1ccccc1)N1Cc2ccc(-c3cccc(F)c3)cc2C1=O [Compound I-76, (R)-2-(6-(3-fluorophenyl)-1-oxoisoindolin-2-yl)-2-phenyl-N-(thiazol-2-yl)acetamide] | B (a % inhibition of between about 50% to about 75%)
15 | O=C(Nc1nccs1)[C@@H](c1ccccc1)N1Cc2cc(Nc3ccc(N4CCOCC4)cc3)ccc2C1=O [Compound I-94, (R)-2-(5-((4-morpholinophenyl)amino)-1-oxoisoindolin-2-yl)-2-phenyl-(thiazol-2-yl)acetamide] | C (a % inhibition of between about 25% to about 50%)
16 | O=C(Nc1nccs1)[C@@H](c1ccccc1)N1Cc2ccc(-c3ccc(C(=O)N4CCOCC4)cc3)cc2C1=O [Compound I-85, (R)-2-(6-(4-(morpholine-4-carbonyl)phenyl)-1-oxoisoindolin-2-yl)-2-phenyl-N-(thiazol-2-yl)acetamide] | D (a % inhibition of between about 0% to about 25%)
17 | O=C(NCCCN1CCOCC1)c1csc(NC(=O)[C@@H](c2ccccc2)N2Cc3ccccc3C2=O)n1 [Compound I-14, (R)-N-(3-morpholinopropyl)-2-(2-(1-oxoisoindolin-2-yl)-2-phenylacetamido)thiazole-4-carboxamide] | A (a % inhibition of about 75%)
18 | O=C(Nc1nccs1)[C@@H](c1ccccc1)N1Cc2ccc(Nc3cccc(F)c3)cc2C1=O [Compound I-99, (R)-2-(6-((3-fluorophenyl)amino)-1-oxoisoindolin-2-yl)-2-phenyl-N-(thiazol-2-yl)acetamide] | C (a % inhibition of between about 25% to about 50%)
19 | O=C(Nc1nccs1)[C@@H](c1ccccc1)N1Cc2cc(-c3ccc4[nH]ccc4c3)ccc2C1=O [Compound I-104, (R)-2-(5-(1H-indol-5-yl)-1-oxoisoindolin-2-yl)-2-phenyl-N-(thiazol-2-yl)acetamide] | C (a % inhibition of between about 25% to about 50%)
20 | O=C(NCc1ccccc1)[C@@H](c1ccccc1)N1Cc2ccccc2C1=O [Compound I-87, (R)-N-benzyl-2-(1-oxoisoindolin-2-yl)-2-phenylacetamide] | A (a % inhibition of about 75%)
21 | O=C(Nc1nccs1)C(c1ccccn1)N1Cc2ccc(-c3ccc4[nH]ccc4c3)cc2C1=O (centres unmarked) [Compound I-123, 2-(6-(1H-indol-5-yl)-1-oxoisoindolin-2-yl)-2-(pyridin-2-yl)-N-(thiazol-2-yl)acetamide] | D (a % inhibition of between about 0% to about 25%)
22 | O=C(Nc1nc(-c2ccncc2)cs1)[C@@H](c1ccccc1)N1Cc2ccccc2C1=O [Compound I-37, (R)-2-(1-oxoisoindolin-2-yl)-2-phenyl-N-(4-(pyridin-4-yl)thiazol-2-yl)acetamide] | A (a % inhibition of about 75%)
23 | O=C(Nc1nc(Br)cs1)[C@@H](Cc1ccccc1)N1Cc2ccccc2C1=O [Compound I-50, (R)-N-(4-bromothiazol-2-yl)-2-(1-oxoisoindolin-2-yl)-3-phenylpropanamide] | A (a % inhibition of about 75%)
24 | O=C(Nc1nccs1)[C@@H](c1ccccc1)N1Cc2ccc(-c3cccnc3)cc2C1=O [Compound I-60, (R)-2-(1-oxo-6-(pyridin-3-yl)isoindolin-2-yl)-2-phenyl-N-(thiazol-2-yl)acetamide] | C (a % inhibition of between about 25% to about 50%)
25 | CN(C)CCCNC(=O)c1csc(NC(=O)[C@@H](c2ccccc2)N2Cc3ccccc3C2=O)n1 [Compound I-11, (R)-N-(3-(dimethylamino)propyl)-2-(2-(1-oxoisoindolin-2-yl)-2-phenylacetamido)thiazole-4-carboxamide] | A (a % inhibition of about 75%)
26 | O=C(Nc1cc(Br)ccn1)[C@H](c1ccccc1)N1Cc2ccccc2C1=O [Compound I-29, (S)-N-(4-bromopyridin-2-yl)-2-(1-oxoisoindolin-2-yl)-2-phenylacetamide] | A (a % inhibition of about 75%)
